Results published in patent US11478440B2, “Combination of Elafibranor or derivatives thereof with an anti-NASH, anti-fibrotic or anti-cholestatic agent” (GENFIT, priority 2017, dated 2022).

Experiments:
HepG2 = assay: Intracellular lipid droplets (AdipoRed) in fat-loaded HepG2; format: cell-based, human; settings: elafibranor 10 μM alone; FFA-treated
Experimental: The human hepatocyte carcinoma were cultured in DMEM 4.5 g/L glucose (Gibco cat #31053 that was supplemented with 10% fetal bovine serum (FBS, Gibco cat #10270), 1% penicillin/streptomycin (Gibco cat #15140), 1% MEM NEAA (Gibco cat #11140), 1% L-Glutamine (Gibco cat #25030), and 1% Sodium Pyruvate (Gibco cat #11360).
For these experiments, a checkerboard matrix was generated. ELA and component stocks were serially diluted in DMSO in 5-points series in a row (ELA) and a 11-points series in a column (component) of a 384-well plate. Subsequently, the 5×11 combination matrix was generated by 1:1 mixing of all single agent concentrations.
Oleic (#O1383) and palmitic (P0500) acids were purchased at Sigma. FFA stock solutions (100 mM) were prepared in 0.1M NaOH at 80° C. Working solutions of 4.5 mM palmitate/10% bovine serum albumin (BSA) and 9 mM oleate/10% BSA were prepared by complexing an appropriate volume of stock solution to 10% BSA (FFA-free low endotoxin; Sigma-Aldrich, Bornem, Belgium) in a 55° C. water bath (15 min). […]
To measure intracellular lipid droplets content, the cells were brought to room temperature and washed with 40 μL PBS. […] The relative fluorescence was measured (k excitation at 485 nm, k emission at 580 nm) using a fluorescence spectrometer (Spark Tecan cat #30086376 SN #1801002745). […]

TGFβ1-induced hHSC = assay: α-SMA ELISA in TGFβ1-induced human primary hepatic stellate cells; format: cell-based
Experimental: (§1) The human primary hepatic stellate cells (hHSC) (Innoprot) were cultured in STeCM medium (ScienCell cat #5301) that was supplemented with 2% fetal bovine serum (FBS, ScienCell cat #0010), 1% penicillin/streptomycin (ScienCell cat #0503) and stellate cell growth supplement (SteCGS; ScienCell cat #5352). Cell culture flasks were coated with Poly-L Lysine (Sigma cat #P4707) for a better adherence.
For these experiments, a checkerboard matrix was generated. ELA and component (ii) stocks were serially diluted in DMSO in 5-points series in a row (ELA) and a 11-points series in a column (component (ii)) of a 96-well plate. Subsequently, the 5×11 combination matrix was generated by 1:1 mixing of all single agent concentrations. The test concentrations for each compound were chosen based on the respective IC50 of each compound as single agent obtained by measuring α-SMA content in the HSC model stimulated with TGF-β1.
The human primary hepatic stellate cells (hHSC) (Innoprot) were cultured under standard conditions, as described above. The cells were subsequently plated at a density of 2×10^4 cells/well into 96-well plates for the measure of α-SMA by ELISA. The next day, cell-culture medium was removed, and cells were washed with PBS (Invitrogen cat #14190). hHSC were deprived for 24 hours in serum-free and SteCGS-free medium. For the treatments with ELA, component (ii) and the respective ELA/component (ii) combinations, the serum-deprived hHSC were preincubated for 1 hour with the compounds followed by addition of the profibrogenic stimuli TGF-β1 (PeproTech cat #100-21, 1 ng/mL) in serum-free and SteCGS-free medium for an additional 48 hour period.
The level of α-SMA was measured using a Sandwich ELISA. Briefly, the wells of an ELISA plate were first coated with the capture antibody (mouse monoclonal anti-ACTA2, Abnova) at 4° C. overnight. After 3 washes in PBS+0.2% Tween 20, a blocking solution consisting of PBS+0.2% BSA was added for one hour followed by another washing cycle. The cell lysates were transferred into the wells for binding to the capture antibody for a period of 2 h at room temperature. After the washing procedure, the detection antibody (biotinylated mouse monoclonal anti-ACTA2, Abnova) was added for 2 hours at room temperature followed by 3 washes. For the detection, an HRP-conjugated Streptavidin (R&D Systems cat #DY998) was first applied for 30 min at room temperature. After washing, the HRP substrate TMB (BD, #555214) was added and incubated for 7 min at room temperature in the dark. Upon oxidation, TMB forms a water-soluble blue reaction product that becomes yellow with addition of sulfuric acid (solution stop), enabling accurate measurement of the intensity at 450 nm using a spectrophotometer. The developed color is directly proportional to the amount of α-SMA present in the lysate.
as §1, with “Cell-culture” for “Cell culture”
For these experiments, a checkerboard matrix was generated. CVC and Elafibranor stocks were serially diluted in DMSO in a 5-points series in a row (Elafibranor) and a 6-points series in a column (Cenicriviroc) of a 96-well plate. Subsequently, the […] combination matrix was generated by 1:1 mixing of all single agent concentrations. The test concentrations for each compound were chosen based on the respective IC50 of each compound as single agent obtained by measuring α-SMA content in the HSC model stimulated with TGF-β1.
The human primary hepatic stellate cells (hHSC) (Innoprot) were cultured under standard conditions, as described above. […]

IC50 (TGFβ1-induced hHSC; TGFβ1 1 ng/ml, 48 h, single agent): 3.17 µM
Substance: 1-[4-methylthiophenyl]-3-[3,5-dimethyl-4-carboxydimethylmethyloxyphenyl]prop-2-en-1-one [Elafibranor]
reduction of fat accumulation (HepG2): 20%
α-SMA inhibition over TGFβ1 control (TGFβ1-induced hHSC; 5 μM of Elafibranor alone): 40%
α-SMA marker reduction (TGFβ1-induced hHSC; TGFβ1 1 ng/ml, 48 h, single agent, maximal reduction): 80%
antifibrotic activity (α-SMA), single agent (TGFβ1-induced hHSC; TGFβ1-activated hHSC, dose range): has an antifibrotic activity
